In article PMC11012124, “Synthesis of Novel Triazine-Based Chalcones and 8,9-dihydro-7H-pyrimido[4,5-b][1,4]diazepines as Potential Leads in the Search of Anticancer, Antibacterial and Antifungal Agents” (International Journal of Molecular Sciences, 2024):
In brackets after ≈: the same amount, converted by molar mass.

Experiments:
[1] = tested on: M. tuberculosis ATCC 27294; experiment: Antitubercular broth microdilution MIC; assay type: cell-based; conditions: Mycobacterium tuberculosis; M. tuberculosis ATCC 27294 (H37Rv); read-out: Minimum inhibitory concentration (MIC)
KM12 = experiment: cells; conditions: Homo sapiens, KM12, 48 h; for CC50: read-out: LC50
[2] = tested on: Trichophyton mentagrophytes (CCC 202-2000); experiment: Antifungal broth microdilution (CLSI); assay type: cell-based; conditions: Tm: Trichophyton mentagrophytes
Procedure, shortened: (§1)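 Broth microdilution followed CLSI M27-A3 for yeasts and the filamentous-fungi reference method, in 200 μL final volume with DMSO-matched growth controls. Plates were incubated in the dark and humid at 30 °C for a time suited to each fungus; testing was done in triplicate.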

[3] = tested on: Cryptococcus neoformans (ATCC 32264); experiment: Antifungal broth microdilution (CLSI); assay type: cell-based; conditions: ATCC32264; Cn: Cryptococcus neoformans
Procedure, shortened: as §1

[4] = tested on: Microsporum gypseum (CCC 115); experiment: Antifungal broth microdilution (CLSI); assay type: cell-based; conditions: Nannizzia gypsea; Mg: Microsporum gypseum
Procedure, shortened: as §1

A. flavus (ATCC 9170) = experiment: Antifungal broth microdilution (CLSI); assay type: cell-based; conditions: ATCC9170; Afl: Aspergillus flavus
Procedure, shortened: as §1

[5] = tested on: Trichophyton rubrum (CCC 134-2000); experiment: Antifungal broth microdilution (CLSI); assay type: cell-based; conditions: Tr: Trichophyton rubrum
Procedure, shortened: as §1

[6] = tested on: A. fumigatus (ATCC 26934); experiment: Antifungal broth microdilution (CLSI); assay type: cell-based; conditions: ATCC26934; Afu: Aspergillus fumigatus
Procedure, shortened: as §1

CAKI-1 = experiment: cells; conditions: Homo sapiens, CAKI-1, 48 h; for CC50: read-out: LC50
HOP-92 = experiment: cells; conditions: Homo sapiens, HOP-92, 48 h; for CC50: read-out: LC50
NCI-H460 = experiment: cells; conditions: Homo sapiens, NCI-H460, 48 h; for CC50: read-out: LC50
SK-MEL-2 = experiment: cells; conditions: Homo sapiens, SK-MEL-2, 48 h; for CC50: read-out: LC50
786-0 = experiment: cells; conditions: Homo sapiens, 786-0, 48 h; for CC50: read-out: LC50
SK-OV-3 = experiment: cells; conditions: Homo sapiens, SK-OV-3, 48 h; for CC50: read-out: LC50
NCI-H23 = experiment: cells; conditions: Homo sapiens, NCI-H23, 48 h; for CC50: read-out: LC50
SNB-75 = experiment: cells; conditions: Homo sapiens, SNB-75, 48 h; for CC50: read-out: LC50
K-562 = experiment: cells; conditions: Homo sapiens, K562, 48 h; for GI50: K-562, 48 h; for CC50: read-out: LC50
SNB-19 = experiment: cells; conditions: Homo sapiens, SNB-19, 48 h; for CC50: read-out: LC50
RXF 393 = experiment: cells; conditions: Homo sapiens, RXF 393, 48 h
MDA-MB-468 = experiment: cells; conditions: Homo sapiens, MDA-MB-468, 48 h; for CC50: read-out: LC50
SR = experiment: cells; conditions: Homo sapiens, 48 h; for CC50: read-out: LC50
IGROV1 = experiment: cells; conditions: Homo sapiens, IGROV-1, 48 h; for CC50: read-out: LC50
A549/ATCC = experiment: cells; conditions: Homo sapiens, A549, 48 h; for CC50: read-out: LC50
SW-620 = experiment: cells; conditions: Homo sapiens, SW-620, 48 h; for CC50: read-out: LC50
HCT-15 = experiment: cells; conditions: Homo sapiens, HCT-15, 48 h; for CC50: read-out: LC50
SK-MEL-28 = experiment: cells; conditions: Homo sapiens, SK-MEL-28, 48 h; for CC50: read-out: LC50
SK-MEL-5 = experiment: cells; conditions: Homo sapiens, SK-MEL-5, 48 h; for CC50: read-out: LC50
HCC-2998 = experiment: cells; conditions: Homo sapiens, HCC 2998, 48 h; for CC50: read-out: LC50
NCI-H522 = experiment: cells; conditions: Homo sapiens, NCI-H522, 48 h; for CC50: read-out: LC50
TK-10 = experiment: cells; conditions: Homo sapiens, TK-10, 48 h; for CC50: read-out: LC50
NCI/ADR-RES = experiment: cells; conditions: Homo sapiens, 48 h

## COc1cc(C2CC(c3ccc(Cl)cc3)=Nc3c(N)nc(N)nc3N2)ccc1Oc1nc(Nc2ccc(F)cc2)nc(N(C)C)n1 (centres unmarked) [29e]
[1]
  MIC: 1.2 µg/mL (≈ 1.87 µM)
KM12
  GI50: 40.1 µM
  CC50: > 100 µM
[2]
  MIC: > 250 µg/mL
[3]
  MIC: > 250 µg/mL
[4]
  MIC: > 250 µg/mL
A. flavus (ATCC 9170)
  MIC: > 250 µg/mL
[5]
  MIC: 62.5 µg/mL (≈ 97.3 µM)
[6]
  MIC: > 250 µg/mL
CAKI-1
  GI50: 3.38 µM
  CC50: > 100 µM
HOP-92
  GI50: 3 µM
  CC50: > 100 µM
NCI-H460
  GI50: 42.3 µM
  CC50: > 100 µM
SK-MEL-2
  GI50: > 100 µM
  CC50: > 100 µM
786-0
  GI50: > 100 µM
  CC50: > 100 µM
SK-OV-3
  GI50: > 100 µM
  CC50: > 100 µM
NCI-H23
  GI50: > 100 µM
  CC50: > 100 µM
SNB-75
  GI50: 3.24 µM
  CC50: > 100 µM
K-562
  GI50: 4.5 µM
  CC50: > 100 µM
SNB-19
  GI50: > 100 µM
  CC50: > 100 µM
RXF 393
  GI50: 2.46 µM
RXF 393; read-out: LC50
  CC50: > 100 µM
MDA-MB-468
  GI50: 17.8 µM
  CC50: > 100 µM
SR
  GI50: 3.41 µM
  CC50: > 100 µM
IGROV1
  CC50: > 100 µM
A549/ATCC
  GI50: > 100 µM
  CC50: > 100 µM
SW-620
  GI50: > 100 µM
  CC50: > 100 µM
HCT-15
  GI50: 76.6 µM
  CC50: > 100 µM
SK-MEL-28
  GI50: > 100 µM
  CC50: > 100 µM
SK-MEL-5
  GI50: 17.2 µM
  CC50: > 100 µM
HCC-2998
  GI50: 45.3 µM
  CC50: > 100 µM
NCI-H522
  GI50: > 100 µM
  CC50: > 100 µM
TK-10
  GI50: > 100 µM
  CC50: > 100 µM

## COc1cc(/C=C/C(=O)c2cc(OC)c(OC)c(OC)c2)ccc1Oc1nc(Nc2ccc(F)cc2)nc(N(C)C)n1 [21d]
KM12
  GI50: 3.63 µM
  CC50: > 100 µM
NCI/ADR-RES
  GI50: 1.42 µM
NCI/ADR-RES; read-out: LC50
  CC50: 8.08 µM
[2]
  MIC: > 250 µg/mL
[3]
  MIC: > 250 µg/mL
[4]
  MIC: > 250 µg/mL
A. flavus (ATCC 9170)
  MIC: > 250 µg/mL
[5]
  MIC: 125 µg/mL (≈ 217 µM)
[6]
  MIC: > 250 µg/mL
CAKI-1
  GI50: 1.98 µM
  CC50: 25.1 µM
HOP-92
  GI50: 1.67 µM
  CC50: 50.9 µM
NCI-H460
  GI50: 1.45 µM
  CC50: 7.53 µM
SK-MEL-2
  GI50: 1.69 µM
  CC50: 8.47 µM
786-0
  GI50: 1.45 µM
  CC50: 7.19 µM
SK-OV-3
  GI50: 8.42 µM
  CC50: 97.4 µM
NCI-H23
  GI50: 1.63 µM
  CC50: 8.08 µM
SNB-75
  GI50: 2.54 µM
  CC50: 81.8 µM
K-562
  GI50: 1.4 µM
  CC50: > 100 µM
SNB-19
  GI50: 1.86 µM
  CC50: 18.5 µM
MDA-MB-468
  GI50: 1.35 µM
  CC50: 9.11 µM
SR
  GI50: 0.7 µM
  CC50: > 100 µM
IGROV1
  GI50: 1.93 µM
  CC50: 12.2 µM
A549/ATCC
  GI50: 4.49 µM
  CC50: 54.7 µM
SW-620
  GI50: 1.55 µM
  CC50: 6.89 µM
HCT-15
  GI50: 1.18 µM
  CC50: 6.39 µM
SK-MEL-28
  GI50: 1.8 µM
  CC50: 9.23 µM
SK-MEL-5
  GI50: 2.16 µM
  CC50: 12.2 µM
HCC-2998
  GI50: 2.03 µM
  CC50: 8.52 µM
NCI-H522
  GI50: 1.47 µM
  CC50: 7.11 µM
TK-10
  GI50: 2.53 µM
  CC50: 38.1 µM
